This note sets out measurements from ChEMBL document CHEMBL1140704, “Further structure-activity relationships study of hybrid 7-{[2-(4-phenylpiperazin-1-yl)ethyl]propylamino}-5,6,7,8-tetrahydronaphthalen-2-ol analogues: identification of a high-affinity D3-preferring agonist with potent in vivo activity with long duration of action” (J Med Chem, 2008).

In assay [1] the target is T1, D(3) dopamine receptor (Homo sapiens, UniProt P35462). Kind of assay: biochemical.
Description: Displacement of [3H]spiperone from human cloned dopamine D3 receptor expressed in HEK293 cells
The target in assay [2] is T2, D(2) dopamine receptor (Homo sapiens, UniProt P14416). Nature of the assay: biochemical.
Description: Displacement of [3H]spiperone from human cloned dopamine D2L receptor expressed in HEK293 cells
A further assay is filed under the species Homo sapiens. Kind of assay: Selectivity for human D3 receptor over human D2L receptor.
Assay [3] deals with T2, D(2) dopamine receptor. Kind of assay: Agonist activity at human cloned dopamine D2L receptor expressed in CHO cells assessed as stimulation of [35S]GTPgammaS binding. Format: functional, cell-based.
Assay [4] has as its system Rattus norvegicus. Kind of assay: Effect on rotational activity in 6-OH-DA-Lesioned rat assessed as number of rotations at 2.51 mg/kg, ip. On the set-up: dose 2.51 mg/kg. Format: functional, organism-based.
Assay [5] addresses T1, D(3) dopamine receptor.
Description: Agonist activity at human cloned dopamine D3 receptor expressed in AtT-20 cells assessed as stimulation of [35S]GTP-gamma-S binding
Assay [6] relates to Rattus norvegicus. Nature of the assay: Effect on rotational activity in 6-OH-DA-Lesioned rat assessed as number of rotations at 0.53 mg/kg, ip after 9 hrs. The conditions noted are these: route intraperitoneal. Format: functional.
Assay [7] relates to Rattus norvegicus. Kind of assay: Effect on rotational activity in 6-OH-DA-Lesioned rat assessed as number of rotations at 2.87 mg/kg, ip after 12 hrs. The settings on record: route intraperitoneal. Format: functional.

The structures appear in SMILES notation. The source made the active and inactive calls. No cut-off for these calls is given here.

T1 sequence (P35462 whole entry): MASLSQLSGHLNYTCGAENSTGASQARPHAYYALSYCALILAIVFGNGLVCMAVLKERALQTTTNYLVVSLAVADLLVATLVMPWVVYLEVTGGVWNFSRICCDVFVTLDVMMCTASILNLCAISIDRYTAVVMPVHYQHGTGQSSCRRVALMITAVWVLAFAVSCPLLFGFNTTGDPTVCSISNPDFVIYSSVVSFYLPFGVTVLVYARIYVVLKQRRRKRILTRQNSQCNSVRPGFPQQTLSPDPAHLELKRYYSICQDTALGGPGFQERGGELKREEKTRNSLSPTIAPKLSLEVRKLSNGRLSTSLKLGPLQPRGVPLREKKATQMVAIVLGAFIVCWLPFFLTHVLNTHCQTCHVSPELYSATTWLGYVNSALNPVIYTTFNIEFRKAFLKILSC
T2 sequence (P14416 whole entry): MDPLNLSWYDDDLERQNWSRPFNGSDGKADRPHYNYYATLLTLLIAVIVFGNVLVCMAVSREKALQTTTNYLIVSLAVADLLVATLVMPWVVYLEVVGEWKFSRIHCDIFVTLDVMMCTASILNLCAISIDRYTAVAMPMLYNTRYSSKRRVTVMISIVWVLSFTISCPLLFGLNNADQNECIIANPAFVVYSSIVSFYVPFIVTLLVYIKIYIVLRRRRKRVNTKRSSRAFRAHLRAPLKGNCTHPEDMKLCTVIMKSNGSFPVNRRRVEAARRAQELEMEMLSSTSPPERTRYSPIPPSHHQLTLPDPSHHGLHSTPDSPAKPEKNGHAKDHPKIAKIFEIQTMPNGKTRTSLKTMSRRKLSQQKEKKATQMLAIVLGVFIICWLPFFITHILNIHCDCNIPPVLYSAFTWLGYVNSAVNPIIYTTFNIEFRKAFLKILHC

For `CCCN(CCCCN1CCN(c2ccccc2)CC1)C1CCc2ccc(O)cc2C1` (stereo in doubt; (+)-13) [listing 1 of 2 here], the Ki on D(3) dopamine receptor [1] was found to be 0.74 nM; at D(2) dopamine receptor [2], 19.3 nM.
In the case of `Oc1ccc2c(c1)CC(N(CCc1cccs1)CCN1CCN(c3ccccc3)CC1)CC2` (stereo not given), in the assay filed under Homo sapiens, the Ratio Ki worked out at 1.03. Further, the values for the Ki at D(3) dopamine receptor [1] and at D(2) dopamine receptor [2] were 23.9 nM and 24.6 nM, respectively.
The corresponding values for `CCCN(CCN1CCN(c2cccc(Cl)c2Cl)CC1)C1CCc2c(O)cccc2C1` (racemic) are 32.2, 0.45 nM and 14.6 nM.
The corresponding values for `CCCN(CCN1CCN(c2ccccc2)CC1)C1CCc2cc(O)ccc2C1` (stereo not given) are 57.9, 11.2 nM and 649 nM.
`CCCN(CCN1CCN(c2ccccc2OC)CC1)C1CCc2c(O)cccc2C1` (single isomer, unassigned; (+)) [listing 1 of 2 here]: the figures for the Ki at D(3) dopamine receptor [1] and at D(2) dopamine receptor [2] were 18.8 nM and 88.7 nM, respectively.
The corresponding values for `CCCN(CCCCN1CCN(c2ccccc2)CC1)C1CCc2ccc(O)cc2C1` (stereo in doubt; (-)-13) [listing 1 of 2 here] are 1.22 nM and 19.4 nM.
As for `CCCN(CCN1CCN(c2ccccc2OC)CC1)C1CCc2c(O)cccc2C1` (racemic) [listing 1 of 2 here], the Ki came to 2.8 nM on D(3) dopamine receptor [1] and 35.8 nM on D(2) dopamine receptor [2].
For `CCCN(CCN1CCN(c2ccccc2OC)CC1)C1CCc2c(O)cccc2C1` (single isomer, unassigned; (+)) [listing 2 of 2 here], the Ratio Ki in the assay filed under Homo sapiens worked out at 4.72.
Turning to `CCCN(CCCCN1CCN(c2ccccc2)CC1)C1CCc2ccc(O)cc2C1` (stereo in doubt; (+)-13) [listing 2 of 2 here], the Ratio Ki in the assay filed under Homo sapiens came out at 25.8.
For `CCCN(CCN1CCN(c2ccccc2)CC1)C1CCc2ccc(N)cc2C1` (stereo not given), the Ki at D(3) dopamine receptor [1] worked out at 22.2 nM; on D(2) dopamine receptor [2] it was 638 nM.
As for `CCCN(CCCCN1CCN(c2ccccc2)CC1)C1CCc2cc(O)c(O)cc2C1` (stereo not given), in the assay listed under Homo sapiens, the Ratio Ki was found to be 7.51. The inhibitory constant (Ki) on D(3) dopamine receptor [1] was found to be 2.89 nM; on D(2) dopamine receptor [2], 21.7 nM.
With `CCCN(CCN1CCN(c2ccccc2OC)CC1)C1CCc2c(O)cccc2C1` (racemic) [listing 2 of 2 here], in the assay filed under Homo sapiens, the Ratio Ki amounted to 12.8.
Take `CCCN(CCN1CCN(c2ccccc2)CC1)C1CCc2ccc(O)cc2C1` (stereo not given): the Ratio EC50 in the assay listed under Homo sapiens came out at 17.6. Further, in the assay listed under Homo sapiens, the Ratio Ki was 91. Further, the figures for the EC50 at D(2) dopamine receptor [3] and on D(3) dopamine receptor [5] were 12.2 nM and 0.69 nM, respectively. In addition, the results for the Ki on D(3) dopamine receptor [1] and on D(2) dopamine receptor [2] were 1.56 nM and 142 nM, respectively. Besides, in the assay with Rattus norvegicus [4], the result was Active.
Regarding `CCCN(CCCCN1CCN(c2ccccc2)CC1)C1CCc2ccc(O)cc2C1` (stereo in doubt; (-)-13) [listing 2 of 2 here], the Ratio Ki in the assay filed under Homo sapiens is 15.9.
Take `CCCN(CCCN1CCN(c2ccccc2)CC1)C1CCc2ccc(O)cc2C1` (stereo not given): in the assay filed under Homo sapiens, the Ratio Ki was 16.2. In addition, the Ki on D(3) dopamine receptor [1] amounted to 10.3 nM; on D(2) dopamine receptor [2], 167 nM.
For the molecule `CCCN(CCN1CCN(c2ccccc2OC)CC1)C1CCc2c(O)cccc2C1` (single isomer, unassigned; (-)) [listing 1 of 2 here], in the assay filed under Homo sapiens, the Ratio EC50 was determined as 19.4 and the Ratio Ki was found to be 20.9.
In the case of `CCCN(CCN1CCN(c2ccccc2)CC1)C1CCc2c(O)cccc2C1` (stereo in doubt; (-)-25), the Activity in the assay with Rattus norvegicus [6] turned out to be 3609; in the assay with Rattus norvegicus [7] it was 4319.
For the molecule `CCCN(CCN1CCN(c2ccccc2OC)CC1)C1CCc2c(O)cccc2C1` (single isomer, unassigned; (-)) [listing 2 of 2 here], the figures for the EC50 at D(2) dopamine receptor [3] and on D(3) dopamine receptor [5] were 1.56 nM and 0.08 nM, respectively. Besides, the Ki turned out to be 0.46 nM at D(3) dopamine receptor [1] and 9.56 nM on D(2) dopamine receptor [2].
Consider `CCCN(CCN1CCN(c2ccccc2)CC1)C1CCc2ccc3c(c2C1)CC(=O)N3` (stereo not given), for which the Ratio Ki in the assay listed under Homo sapiens turned out to be 8.27. In addition, the Ki was found to be 10.9 nM at D(3) dopamine receptor [1] and 90.6 nM at D(2) dopamine receptor [2].
Taken in the same sequence, the figures for `CCCN(CCN1CCN(c2ccccc2)CC1)C1CCc2cc(O)c(O)cc2C1` (stereo not given) were 50.6, 1.39 nM and 70.3 nM.

For orientation: Ki means the dissociation constant of the complex between target and ligand, obtained from inhibition or displacement. Broadly, the EC50 is the concentration needed to bring the measured effect to its halfway point.
